Key:
[1] = system: RPAR Synovitis; test: Reversed Passive Arthus-Reaction (RPAR) Synovitis technique; type: in vivo, male Lewis rats; details: dosage of 50 mpk, oral, split dose (half one hour before, half three hours after lesion induction); delta synovial weight about 17 hours after lesion induction; Lewis rat
Procedure: The anti-inflammatory potential of the compounds of the present invention may be determined by the Reversed Passive Arthus-Reaction (RPAR) Synovitis technique as set forth below using male Lewis rats (obtained from Charles River Breeding Laboratories) weighing 200-250 g. The potency of the compounds is determined using indo- methacin as the standard. On the basis of the test results, a dosage range of about 0.1 milligrams per kilogram of body weight per day to about 50 milligrams per kilogram of body weight per day in divided doses at about 4 hour intervals is recommended. For the preferred compounds of the invention tested, it is considered that the compounds are effectively non-toxic at the dose- rates indicated for treatment of inflammatory conditions. […]
The following morning (about 17 hours after lesion induction) the rat is killed and both knee joints are exposed. […] Differences in delta synovial weight between lesion controls and drug- treated rats are evaluated for statistical significance with an analysis of variance. Relative potencies are determined with a linear regression analysis. […]

[2] = Ulcerogenicity test (oral administration); type: in vivo; details: dosages as high as 100mpk

| Structure (SMILES) | percentage inhibition of inflammation (I) [1] [%] | ulcerogenic [2] |
| --- | --- | --- |
| CCCc1c(O)n(Cc2ccccc2)c2nc3c(c(=O)n(C)c(=O)n3C)n2c1=O [A, 9-benzyl-1,3-dimethyl-8-hydroxy-7-n-propyl-9H-6-. oxo-pyrimido[2,1-f]purine-2,4-dione] | 46 | not to be ulcerogenic |
| CCCCc1c(O)n(Cc2ccccc2)c2nc3c(c(=O)n(C)c(=O)n3C)n2c1=O [B, 9-benzyl-1,3-dimethyl-8-hydroxy-7-(n-butyl)-9H-6-oxo-pyrimido[2,1-f]purine-2,4-dione] | 48 | – |

From patent EP0107165A1, “Substituted 9H-8-oxo-pyrimido(2,1-f)purine-2,4-diones, process for their production and pharmaceutical compositions containing them” (SCHERING CORPORATION, priority 1982, dated 1984)
